How the values were obtained:
[1] = tested on: bicistronic HCV replicon (replicon RNA, GenBank Accession No. AJ242654); assay: HCV Replicon Assay; format: cell-based; details: Hepatitis C virus, 72 h, read-out: Replicon IC50

| SMILES | IC50 [1] [µM] | melting point [°C] |
| --- | --- | --- |
| CCc1cc2c(cc1F)c(C(N)=O)c(-c1ccc(S(=O)(=O)N[C@@H](C)C(F)(F)F)cn1)n2C1CCCC1 [compound 830, 1-cyclopentyl-6-ethyl-5-fluoro-2-(5-{[(2S)-1,1,1-trifluoropropan-2-yl]sulfamoyl}pyridin-2-yl)-1H-indole-3-carboxamide] | < 0.5 | 237 to 238 |
| N#Cc1c(-c2ccc(S(=O)(=O)NC(CF)CF)cn2)n(C2CC2)c2cc(C3CC3)ccc12 [compound 147, 6-(3-cyano-1,6-dicyclopropyl-1H-indol-2-yl)-N-(1,3-difluoropropan-2-yl)pyridine-3-sulfonamide] | < 0.5 | 226 to 228 |
| CC(C)n1c(-c2ccc(S(=O)(=O)N[C@@H](C)C(F)(F)F)cn2)c(C#N)c2c(F)cc(OC(F)F)cc21 [compound 784, 6-[3-cyano-6-(difluoromethoxy)-4-fluoro-1-(propan-2-yl)-1H-indol-2-yl]-N-[(2S)-1,1,1-trifluoropropan-2-yl]pyridine-3-sulfonamide] | < 0.5 | 193 to 194 |
| C[C@H](NS(=O)(=O)c1cnc(-c2c(C#N)c3cc(F)ccc3n2C2CCCCC2)nc1)C(F)(F)F [compound 393, 2-(3-cyano-1-cyclohexyl-5-fluoro-1H-indol-2-yl)-N-[(2S)-1,1,1-trifluoropropan-2-yl]pyrimidine-5-sulfonamide] | < 0.5 | 236 to 238 |
| CCc1cc2c(cc1F)c(C#N)c(-c1ccc(S(=O)(=O)N[C@@H](C)C(F)(F)F)cn1)n2-c1cncnc1 [compound 963, 6-[3-cyano-6-ethyl-5-fluoro-1-(pyrimidin-5-yl)-1H-indol-2-yl]-N-[(2S)-1,1,1-trifluoropropan-2-yl]pyridine-3-sulfonamide] | < 0.5 | 250 to 257 |
| Cc1cc2c(cc1F)c(C(N)=O)c(-c1ccc(S(=O)(=O)N[C@@H](C)C(F)(F)F)cn1)n2-c1cccnn1 [compound 912, 5-fluoro-6-methyl-1-(pyridazin-3-yl)-2-(5-{[(2S)-1,1,1-trifluoropropan-2-yl]sulfamoyl}pyridin-2-yl)-1H-indole-3-carboxamide] | 2 to 5 | 176 to 181 |
| C[C@H](NS(=O)(=O)c1ccc(-c2c(C(N)=O)c3cc(F)c(C4CC4)cc3n2C2CCC2)nc1)C(F)(F)F [compound 731, 1-cyclobutyl-6-cyclopropyl-5-fluoro-2-(5-{[(2S)-1,1,1-trifluoropropan-2-yl]sulfamoyl}pyridin-2-yl)-1H-indole-3-carboxamide] | < 0.5 | 225 to 227 |
| N#Cc1ccc2c(C#N)c(-c3ncc(S(=O)(=O)NC(CF)CF)cn3)n(C3CCCC3)c2c1 [compound 469, 2-(3,6-dicyano-1-cyclopentyl-1H-indol-2-yl)-N-(1,3-difluoropropan-2-yl)pyrimidine-5-sulfonamide] | 0.5 to 2 | 246 to 247 |
| C[C@H](NS(=O)(=O)c1ccc(-c2c(C#N)c3cc(C(F)F)ccc3n2C2CCCC2)nc1)C(F)(F)F [compound 537, 6-[3-cyano-1-cyclopentyl-5-(difluoromethyl)-1H-indol-2-yl]-N-[(2S)-1,1,1-trifluoropropan-2-yl]pyridine-3-sulfonamide] | < 0.5 | 187 to 188 |
| COc1ccc2c(C#N)c(-c3ncc(S(=O)(=O)N[C@@H](C)C4CC4)cn3)n(C3CCCC3)c2c1 [compound 206, 2-(3-cyano-1-cyclopentyl-6-methoxy-1H-indol-2-yl)-N-[(1S)-1-cyclopropylethyl]pyrimidine-5-sulfonamide] | 0.5 to 2 | 192 to 194 |
| CCc1cc2c(cc1F)c(C#N)c(-c1ccc(S(=O)(=O)N[C@@H](C)C(F)(F)F)cn1)n2-c1cnccn1 [compound 929, 6-[3-cyano-6-ethyl-5-fluoro-1-(pyrazin-2-yl)-1H-indol-2-yl]-N-[(2S)-1,1,1-trifluoropropan-2-yl]pyridine-3-sulfonamide] | < 0.5 | 225 to 229 |
| CCc1ccc2c(C#N)c(-c3ccc(S(=O)(=O)NC(CF)CF)cn3)n(C3CCCC3)c2c1 [compound 310, 6-(3-cyano-1-cyclopentyl-6-ethyl-1H-indol-2-yl)-N-(1,3-difluoropropan-2-yl)pyridine-3-sulfonamide] | < 0.5 | 204.5 to 205 |
| C[C@H](NS(=O)(=O)c1ccc(-c2c(C#N)c3ccc(Cl)cc3n2-c2ccccn2)nc1)C1CC1 [compound 488, 6-[6-chloro-3-cyano-1-(pyridin-2-yl)-1H-indol-2-yl]-N-[(1S)-1-cyclopropylethyl]pyridine-3-sulfonamide] | < 0.5 | 199 to 201 |
| N#Cc1c(-c2ccc(S(N)(=O)=O)cn2)n(C2CCC2)c2cc(OC(F)F)c(F)cc12 [compound 722, 6-[3-cyano-1-cyclobutyl-6-(difluoromethoxy)-5-fluoro-1H-indol-2-yl]pyridine-3-sulfonamide] | < 0.5 | 172 to 175 |
| C[C@H](NS(=O)(=O)c1ccc(-c2c(C#N)c3cc(C#N)ccc3n2C2CCCC2)nc1)C(F)(F)F [compound 346, 6-(3,5-dicyano-1-cyclopentyl-1H-indol-2-yl)-N-[(2S)-1,1,1-trifluoropropan-2-yl]pyridine-3-sulfonamide] | < 0.5 | 225 to 228 |
| CC(C)NS(=O)(=O)c1cnc(-c2c(C#N)c3ccc(C4CC4)cc3n2CC2CC2)nc1 [compound 124, 2-[3-cyano-6-cyclopropyl-1-(cyclopropylmethyl)-1H-indol-2-yl]-N-(propan-2-yl)pyrimidine-5-sulfonamide] | < 0.5 | 169 to 174 |
| N#Cc1c(-c2ccc(S(=O)(=O)NC(CF)CF)cn2)n(-c2ccccc2)c2cc(OC(F)F)ccc12 [compound 226, 6-[3-cyano-6-(difluoromethoxy)-1-phenyl-1H-indol-2-yl]-N-(1,3-difluoropropan-2-yl)pyridine-3-sulfonamide] | < 0.5 | 200 to 202 |
| Cc1cc2c(cc1F)c(C(=O)O)c(-c1ccc(S(=O)(=O)NC(C)(C)C)cn1)n2C1CCCC1 [compound 766, 2-[5-(tert-butylsulfamoyl)pyridin-2-yl]-1-cyclopentyl-5-fluoro-6-methyl-1H-indole-3-carboxylic acid] | < 0.5 | 238 to 240 |
| CC(C)n1c(-c2ccc(S(=O)(=O)NC(CF)CF)cn2)c(C#N)c2ccc(C3CC3)cc21 [compound 83, 6-[3-cyano-6-cyclopropyl-1-(propan-2-yl)-1H-indol-2-yl]-N-(1,3-difluoropropan-2-yl)pyridine-3-sulfonamide] | < 0.5 | 184 to 190 |
| N#Cc1c(-c2ncc(S(=O)(=O)NC(CF)CF)cn2)n(CC2CC2)c2cc(CC(F)F)ccc12 [compound 621, 2-[3-cyano-1-(cyclopropylmethyl)-6-(2,2-difluoroethyl)-1H-indol-2-yl]-N-(1,3-difluoropropan-2-yl)pyrimidine-5-sulfonamide] | < 0.5 | 180 to 188 |
| C[C@@H](NS(=O)(=O)c1cnc(-c2c(C#N)c3ccc(C4CC4)cc3n2C2CCC2)nc1)C(F)(F)F [compound 180, 2-(3-cyano-1-cyclobutyl-6-cyclopropyl-1H-indol-2-yl)-N-[(2R)-1,1,1-trifluoropropan-2-yl]pyrimidine-5-sulfonamide] | 0.5 to 2 | 211 to 212 |
| N#Cc1c(-c2ccc(S(=O)(=O)NC3(C(F)(F)F)CC3)cn2)n(-c2ncccn2)c2cc(OC(F)F)ccc12 [compound 690, 6-[3-cyano-6-(difluoromethoxy)-1-(pyrimidin-2-yl)-1H-indol-2-yl]-N-[1-(trifluoromethyl)cyclopropyl]pyridine-3-sulfonamide] | 0.5 to 2 | 170 to 174 |
| Cc1cc2c(cc1F)c(C#N)c(-c1ccc(S(=O)(=O)N[C@@H](C)C(F)(F)F)cn1)n2-c1ccc(Cl)s1 [compound 1032, 6-[1-(5-chlorothiophen-2-yl)-3-cyano-5-fluoro-6-methyl-1H-indol-2-yl]-N-[(2S)-1,1,1-trifluoropropan-2-yl]pyridine-3-sulfonamide] | < 0.5 | 244.8 to 247.4 |
| CCc1cc2c(cc1F)c(C(N)=O)c(-c1ccc(S(=O)(=O)N[C@@H](C)C(F)(F)F)cn1)n2-c1cc(Cl)ccn1 [compound 1048, 1-(4-chloropyridin-2-yl)-6-ethyl-5-fluoro-2-(5-{[(2S)-1,1,1-trifluoropropan-2-yl]sulfamoyl}pyridin-2-yl)-1H-indole-3-carboxamide] | 0.5 to 2 | 200 to 204 |
| N#Cc1c(-c2ccc(S(=O)(=O)NC(CF)CF)cn2)n(CC2CC2)c2ccc(F)cc12 [compound 58, 6-[3-cyano-1-(cyclopropylmethyl)-5-fluoro-1H-indol-2-yl]-N-(1,3-difluoropropan-2-yl)pyridine-3-sulfonamide] | < 0.5 | 162 to 164 |
| Cc1ccc2c(c1)c(C#N)c(-c1ccc(S(=O)(=O)N[C@H](C)C(F)(F)F)cn1)n2CC1CC1 [compound 458, 6-[3-cyano-1-(cyclopropylmethyl)-5-methyl-1H-indol-2-yl]-N-[(2R)-1,1,1-trifluoropropan-2-yl]pyridine-3-sulfonamide] | < 0.5 | 166 to 172 |
| CC(C)NS(=O)(=O)c1cnc(-c2c(C#N)c3ccc(Cl)cc3n2C2CCC2)nc1 [compound 115, 2-(6-chloro-3-cyano-1-cyclobutyl-1H-indol-2-yl)-N-(propan-2-yl)pyrimidine-5-sulfonamide] | < 0.5 | 228 to 229 |
| C[C@H](NS(=O)(=O)c1ccc(-c2c(C#N)c3cc(C(F)(F)F)ccc3n2-c2cnccn2)nc1)C(F)(F)F [compound 897, 6-[3-cyano-1-(pyrazin-2-yl)-5-(trifluoromethyl)-1H-indol-2-yl]-N-[(2S)-1,1,1-trifluoropropan-2-yl]pyridine-3-sulfonamide] | < 0.5 | 255 to 258 |
